From ChEMBL document CHEMBL1201862, “PubChem BioAssay data set” (2004)
Calls of active or inactive are those of the source.

Experiments:
[1] = molecular target: Lysine-specific demethylase 4C (Homo sapiens, UniProt Q9H3R0); experiment: inhibition of JMJD2C H3K9me3 demethylation – biochemical, DELFIA europium, cherry-picked samples, dose response (AID 488835); assay type: functional
A-375 [2] = experiment: MITF: Counter assay: A375 proliferation Measured in Cell-Based System Using Plate Reader - 2084-03_Inhibitor_Dose_DryPowder_Activity. [Related pubchem assays (depositor defined):AID488944]; assay type: functional; conditions: Homo sapiens
A-375 [3] = experiment: proliferation inhibition in MITF-low A375 cells – cell-based, cherry-pick samples, set 2, counter-screen for MITF modulator project, dose response (AID 540335); assay type: functional; conditions: Homo sapiens
[4] = molecular target: Delta-type opioid receptor (Homo sapiens, UniProt P41143); experiment: Counterscreen for agonists of heterodimerization of the mu 1 (OPRM1) and delta 1 (OPRD1) opioid receptors: Luminescence-based cell-based high throughput dose response assay to identify agonists of OPRD1 homodimerization. [Related pubchem assays (depositor defined):AID504326, AID504355, AID504692, AID504904, AID504905]; assay type: functional
Delta-type opioid receptor, sequence (P41143 whole entry): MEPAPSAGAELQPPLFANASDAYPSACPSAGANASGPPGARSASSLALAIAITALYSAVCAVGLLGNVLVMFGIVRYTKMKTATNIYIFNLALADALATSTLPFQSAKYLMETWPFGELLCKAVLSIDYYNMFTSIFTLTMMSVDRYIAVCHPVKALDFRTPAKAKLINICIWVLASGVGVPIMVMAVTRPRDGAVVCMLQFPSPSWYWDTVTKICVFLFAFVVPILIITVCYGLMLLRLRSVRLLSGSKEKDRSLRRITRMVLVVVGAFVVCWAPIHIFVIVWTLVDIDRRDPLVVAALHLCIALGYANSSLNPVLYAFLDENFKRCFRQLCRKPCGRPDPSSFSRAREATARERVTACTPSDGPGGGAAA

Mu-type opioid receptor = Mu-type opioid receptor (Homo sapiens, UniProt P35372); experiment: Counterscreen for agonists of heterodimerization of the mu 1 (OPRM1) and delta 1 (OPRD1) opioid receptors: Luminescence-based cell-based high throughput dose response assay to identify agonists of OPRM1 homodimerization.; assay type: functional;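 further: U2OS cells expressing OPRM1 and beta-arrestin as split beta-galactosidase partners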
Mu-type opioid receptor, sequence (P35372 whole entry): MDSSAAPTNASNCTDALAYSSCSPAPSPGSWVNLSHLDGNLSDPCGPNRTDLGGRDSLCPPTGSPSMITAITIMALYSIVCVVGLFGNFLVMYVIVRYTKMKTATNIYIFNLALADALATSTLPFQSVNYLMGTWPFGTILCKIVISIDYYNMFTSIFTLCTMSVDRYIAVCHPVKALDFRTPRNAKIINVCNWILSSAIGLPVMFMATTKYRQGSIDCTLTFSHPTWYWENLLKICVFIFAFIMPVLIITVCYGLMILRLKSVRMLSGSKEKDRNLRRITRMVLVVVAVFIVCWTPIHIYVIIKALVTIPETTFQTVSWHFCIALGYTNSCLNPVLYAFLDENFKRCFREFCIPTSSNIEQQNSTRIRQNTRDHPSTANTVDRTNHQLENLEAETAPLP

[5] = molecular target: 5-hydroxytryptamine receptor 5A (Homo sapiens, UniProt P47898); experiment: Counterscreen for agonists of OPRM1-OPRD1 heterodimerization: luminescence-based cell-based high throughput dose response assay to identify agonists of 5-hydroxytryptamine (serotonin) 5A receptor (HTR5A). [Related pubchem assays (depositor defined):AID504326, AID504355, AID504692, AID504904, AID504905]; assay type: functional
5-hydroxytryptamine receptor 5A, sequence (P47898 whole entry): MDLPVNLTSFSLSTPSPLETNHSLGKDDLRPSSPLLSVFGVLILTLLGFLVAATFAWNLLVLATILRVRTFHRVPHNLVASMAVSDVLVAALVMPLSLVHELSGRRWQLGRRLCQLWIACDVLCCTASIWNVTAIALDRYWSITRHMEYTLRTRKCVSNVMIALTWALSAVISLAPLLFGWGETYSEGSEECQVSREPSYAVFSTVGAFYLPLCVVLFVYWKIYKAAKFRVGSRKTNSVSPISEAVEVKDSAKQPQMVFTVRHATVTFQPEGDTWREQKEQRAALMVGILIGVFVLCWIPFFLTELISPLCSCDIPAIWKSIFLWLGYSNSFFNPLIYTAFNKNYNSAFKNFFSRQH

[6] = A Cell Based Secondary Assay To Explore Cytotoxicity of Compounds that Sensitize Mycobacterium Tuberculosis to Beta-Lactam Antibiotics.; assay type: functional
[7] = molecular target: T1, Microphthalmia-associated transcription factor (Homo sapiens, UniProt O75030); experiment: reducers of TRPM1 reporter luminescence, concentration series – cell-based, SK-MEL-5, cherry-picked, set 3, MITF inhibitor project, dose response (AID 493073); assay type: functional;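 further: SK-MEL-5 melanoma cells with luciferase driven by the MITF target TRPM1 promoter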
T1 sequence (O75030 whole entry): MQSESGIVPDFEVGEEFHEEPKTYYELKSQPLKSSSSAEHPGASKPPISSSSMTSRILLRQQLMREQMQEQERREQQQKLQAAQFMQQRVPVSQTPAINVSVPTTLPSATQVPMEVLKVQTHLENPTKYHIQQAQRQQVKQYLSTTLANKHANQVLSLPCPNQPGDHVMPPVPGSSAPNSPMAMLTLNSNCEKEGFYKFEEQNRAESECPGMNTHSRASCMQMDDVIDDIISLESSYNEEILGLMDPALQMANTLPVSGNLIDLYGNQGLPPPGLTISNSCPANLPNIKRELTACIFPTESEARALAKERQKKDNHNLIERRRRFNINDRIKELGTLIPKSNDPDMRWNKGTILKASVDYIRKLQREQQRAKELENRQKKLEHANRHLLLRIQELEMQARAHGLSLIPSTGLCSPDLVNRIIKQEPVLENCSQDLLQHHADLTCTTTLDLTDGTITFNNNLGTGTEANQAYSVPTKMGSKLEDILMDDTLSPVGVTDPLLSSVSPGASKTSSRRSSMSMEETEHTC

[8] = reduction of Shn3 3'UTR-driven luciferase in osteoblasts – cell-based, Clone20 osteoblasts, firefly luciferase, cherry-picked, dose response (AID 624132); assay type: functional;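 further: firefly luciferase luminescence from reporter carrying the Shn3 3'UTR in osteoblasts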
[9] = loss of viability in HepG2 cells – cell-based, CellTiter-Glo, cherry-picked, cytotoxicity control for Shn3 inhibitor project, dose response (AID 624134); assay type: functional
[10] = non-specific 3'UTR reporter inhibition in Clone20-Shn3RL – cell-based, Renilla luciferase, cherry-picked, counter-screen for Shn3 inhibitor project, dose response (AID 624133); assay type: functional
HeLa = experiment: viability loss in HeLa cells – cell-based, 24 h, cherry-picked samples, cytotoxicity control, dose response (AID 504726); assay type: functional; conditions: Homo sapiens;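 further: potency for cytotoxicity as loss of luminescence signal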
ORF 73 = molecular target: T2, ORF 73 (Human herpesvirus 8, UniProt O40947); experiment: KSHV LANA DNA-binding disruption – biochemical, fluorescence polarization, cherry-picked samples, dose response (AID 504725); parameters: species or system Human gammaherpesvirus 8;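 further: fluorescence polarization of a labeled DNA duplex reporting LANA DNA binding; potency is for inhibitors that block LANA binding to the DNA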
T2 sequence (O40947 whole entry): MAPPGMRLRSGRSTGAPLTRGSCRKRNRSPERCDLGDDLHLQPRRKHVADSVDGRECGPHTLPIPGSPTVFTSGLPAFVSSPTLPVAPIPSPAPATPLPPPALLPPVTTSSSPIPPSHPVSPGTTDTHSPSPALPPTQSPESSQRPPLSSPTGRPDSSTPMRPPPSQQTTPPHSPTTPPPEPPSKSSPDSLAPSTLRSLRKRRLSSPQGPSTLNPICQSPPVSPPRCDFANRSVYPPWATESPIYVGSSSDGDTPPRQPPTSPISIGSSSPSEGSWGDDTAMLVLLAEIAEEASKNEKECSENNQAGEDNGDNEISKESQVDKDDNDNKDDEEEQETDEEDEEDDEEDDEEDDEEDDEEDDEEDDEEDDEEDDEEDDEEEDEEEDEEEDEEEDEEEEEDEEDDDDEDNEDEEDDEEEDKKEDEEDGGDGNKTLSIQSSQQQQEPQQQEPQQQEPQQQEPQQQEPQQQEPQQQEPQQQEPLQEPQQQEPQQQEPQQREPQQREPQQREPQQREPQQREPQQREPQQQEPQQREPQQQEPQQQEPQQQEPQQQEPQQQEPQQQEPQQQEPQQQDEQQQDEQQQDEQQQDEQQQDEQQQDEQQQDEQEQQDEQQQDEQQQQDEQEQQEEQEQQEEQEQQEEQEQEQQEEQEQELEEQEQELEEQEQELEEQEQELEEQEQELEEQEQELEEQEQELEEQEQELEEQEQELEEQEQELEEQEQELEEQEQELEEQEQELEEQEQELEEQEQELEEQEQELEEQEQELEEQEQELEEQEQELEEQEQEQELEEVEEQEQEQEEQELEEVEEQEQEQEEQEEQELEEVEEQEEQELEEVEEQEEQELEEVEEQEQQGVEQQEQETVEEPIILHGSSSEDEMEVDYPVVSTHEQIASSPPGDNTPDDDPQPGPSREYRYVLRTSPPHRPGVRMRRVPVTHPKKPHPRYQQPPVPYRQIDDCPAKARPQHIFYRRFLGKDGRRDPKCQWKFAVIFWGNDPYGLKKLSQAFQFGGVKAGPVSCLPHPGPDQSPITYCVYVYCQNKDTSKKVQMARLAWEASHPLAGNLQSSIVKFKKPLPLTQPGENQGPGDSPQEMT

Cytochrome P450 2D6 = Cytochrome P450 2D6 (Homo sapiens, UniProt P10635);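 further: CYP2D6 member of a cytochrome P450 panel assay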
Cytochrome P450 2D6, sequence (P10635 whole entry): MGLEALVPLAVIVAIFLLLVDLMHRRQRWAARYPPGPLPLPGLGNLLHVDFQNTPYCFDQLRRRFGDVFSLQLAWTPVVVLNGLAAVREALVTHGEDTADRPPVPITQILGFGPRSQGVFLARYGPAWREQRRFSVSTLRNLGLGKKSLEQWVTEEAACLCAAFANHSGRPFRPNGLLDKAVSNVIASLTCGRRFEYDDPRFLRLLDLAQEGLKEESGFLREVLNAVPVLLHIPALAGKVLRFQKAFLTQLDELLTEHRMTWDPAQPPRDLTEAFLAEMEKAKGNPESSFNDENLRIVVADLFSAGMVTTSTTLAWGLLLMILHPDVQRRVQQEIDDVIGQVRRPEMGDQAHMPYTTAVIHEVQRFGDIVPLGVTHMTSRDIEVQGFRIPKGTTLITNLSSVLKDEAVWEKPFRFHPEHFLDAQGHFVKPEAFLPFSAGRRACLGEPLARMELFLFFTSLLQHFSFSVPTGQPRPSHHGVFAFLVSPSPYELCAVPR

HEK293 [11] = experiment: cells; conditions: Homo sapiens
HEK293 [12] = experiment: cells; conditions: Homo sapiens; remark: listed apart in the source
Vero [13] = experiment: cells; assay type: functional, cell-based; conditions: Chlorocebus sabaeus
Vero [14] = experiment: cells; assay type: functional; conditions: Chlorocebus sabaeus
Tumor necrosis factor = Tumor necrosis factor (Homo sapiens, UniProt P01375); experiment: analog potency on TNFa NF-kB signaling – cell-based, revised, SAR follow-up (AID 2337); assay type: functional
Tumor necrosis factor, sequence (P01375 whole entry, the tested form may be a part): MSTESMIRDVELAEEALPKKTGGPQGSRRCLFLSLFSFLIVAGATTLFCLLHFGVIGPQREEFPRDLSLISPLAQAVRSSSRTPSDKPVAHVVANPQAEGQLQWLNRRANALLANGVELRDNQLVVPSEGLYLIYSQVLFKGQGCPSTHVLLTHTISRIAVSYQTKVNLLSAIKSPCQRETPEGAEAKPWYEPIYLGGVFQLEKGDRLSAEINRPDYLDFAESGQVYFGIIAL

[15] = molecular target: T3, Nucleotide-binding oligomerization domain-containing protein 1 (Homo sapiens, UniProt Q9Y239); experiment: blockers of NOD1 pathway activity – revised, SAR follow-up (AID 2333); assay type: functional
T3 sequence (Q9Y239 whole entry): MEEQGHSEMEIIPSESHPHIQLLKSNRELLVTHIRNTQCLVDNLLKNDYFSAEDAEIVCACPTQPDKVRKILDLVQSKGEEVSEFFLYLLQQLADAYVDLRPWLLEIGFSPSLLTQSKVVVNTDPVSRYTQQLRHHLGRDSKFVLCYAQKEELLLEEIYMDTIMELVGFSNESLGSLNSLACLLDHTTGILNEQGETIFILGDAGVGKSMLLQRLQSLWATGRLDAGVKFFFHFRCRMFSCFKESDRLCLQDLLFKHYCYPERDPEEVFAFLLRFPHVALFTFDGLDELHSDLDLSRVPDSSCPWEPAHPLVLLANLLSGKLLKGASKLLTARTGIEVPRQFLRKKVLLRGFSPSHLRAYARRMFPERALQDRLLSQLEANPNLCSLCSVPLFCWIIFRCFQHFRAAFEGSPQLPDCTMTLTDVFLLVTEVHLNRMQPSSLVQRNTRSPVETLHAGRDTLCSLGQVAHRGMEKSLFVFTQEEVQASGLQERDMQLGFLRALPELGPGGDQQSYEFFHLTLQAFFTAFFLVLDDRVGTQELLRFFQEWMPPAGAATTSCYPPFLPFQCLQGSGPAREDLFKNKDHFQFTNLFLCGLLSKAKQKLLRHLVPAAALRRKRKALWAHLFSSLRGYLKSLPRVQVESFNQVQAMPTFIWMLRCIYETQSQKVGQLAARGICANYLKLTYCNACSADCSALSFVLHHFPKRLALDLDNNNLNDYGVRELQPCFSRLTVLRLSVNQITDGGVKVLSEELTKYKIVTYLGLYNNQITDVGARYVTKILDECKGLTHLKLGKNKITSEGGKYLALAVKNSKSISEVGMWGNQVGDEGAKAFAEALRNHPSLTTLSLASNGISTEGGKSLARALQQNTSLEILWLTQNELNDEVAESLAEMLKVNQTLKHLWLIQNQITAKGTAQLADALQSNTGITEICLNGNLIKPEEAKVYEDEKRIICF

HEK293 [16] = experiment: cells; conditions: Homo sapiens; remark: listed apart in the source
[17] = luciferase reporter signal suppression in cells – H4 neuroglioma cells, luminescence, dose response (AID 1990); assay type: functional, cell-based
[18] = Luminescence Cell-Based Dose Response HTS to Identify Inhibitors of 5'UTR Stem-Loop Driven Prion Protein mRNA Translation in H4 Neuroglioblastoma Cells. [Related pubchem assays: 1827 (Project Summary), 1813 (Primary HTS)]; assay type: functional
[19] = alpha-synuclein stem-loop luciferase translation blockers – H4 neuroglioma cells, luminescence, confirmation (AID 1988); assay type: functional, cell-based
[20] = Luminescence Cell-Based Dose Retest to Confirm Inhibitors of Cancer Stem Cells. [Related pubchem assays (depositor defined):AID2717, AID2721]; assay type: functional; conditions: Homo sapiens
HEK293 [21] = experiment: inhibition of NOD1-driven NF-kB reporter – cell-based, luminescence, uHTS, primary screen (AID 1578); assay type: functional; conditions: Homo sapiens
HEK293 [22] = experiment: cells; assay type: functional, cell-based; conditions: Homo sapiens
HEK293 [23] = experiment: cells; assay type: functional, cell-based; conditions: Homo sapiens; remark: listed apart in the source
[24] = molecular target: Nucleotide-binding oligomerization domain-containing protein 2 (Homo sapiens, UniProt Q9HC29); experiment: inhibition of NOD2-driven NF-kB reporter – cell-based, luminescence, uHTS, HEK293 (AID 1566); assay type: functional
Nucleotide-binding oligomerization domain-containing protein 2, sequence (Q9HC29 whole entry, the tested form may be a part): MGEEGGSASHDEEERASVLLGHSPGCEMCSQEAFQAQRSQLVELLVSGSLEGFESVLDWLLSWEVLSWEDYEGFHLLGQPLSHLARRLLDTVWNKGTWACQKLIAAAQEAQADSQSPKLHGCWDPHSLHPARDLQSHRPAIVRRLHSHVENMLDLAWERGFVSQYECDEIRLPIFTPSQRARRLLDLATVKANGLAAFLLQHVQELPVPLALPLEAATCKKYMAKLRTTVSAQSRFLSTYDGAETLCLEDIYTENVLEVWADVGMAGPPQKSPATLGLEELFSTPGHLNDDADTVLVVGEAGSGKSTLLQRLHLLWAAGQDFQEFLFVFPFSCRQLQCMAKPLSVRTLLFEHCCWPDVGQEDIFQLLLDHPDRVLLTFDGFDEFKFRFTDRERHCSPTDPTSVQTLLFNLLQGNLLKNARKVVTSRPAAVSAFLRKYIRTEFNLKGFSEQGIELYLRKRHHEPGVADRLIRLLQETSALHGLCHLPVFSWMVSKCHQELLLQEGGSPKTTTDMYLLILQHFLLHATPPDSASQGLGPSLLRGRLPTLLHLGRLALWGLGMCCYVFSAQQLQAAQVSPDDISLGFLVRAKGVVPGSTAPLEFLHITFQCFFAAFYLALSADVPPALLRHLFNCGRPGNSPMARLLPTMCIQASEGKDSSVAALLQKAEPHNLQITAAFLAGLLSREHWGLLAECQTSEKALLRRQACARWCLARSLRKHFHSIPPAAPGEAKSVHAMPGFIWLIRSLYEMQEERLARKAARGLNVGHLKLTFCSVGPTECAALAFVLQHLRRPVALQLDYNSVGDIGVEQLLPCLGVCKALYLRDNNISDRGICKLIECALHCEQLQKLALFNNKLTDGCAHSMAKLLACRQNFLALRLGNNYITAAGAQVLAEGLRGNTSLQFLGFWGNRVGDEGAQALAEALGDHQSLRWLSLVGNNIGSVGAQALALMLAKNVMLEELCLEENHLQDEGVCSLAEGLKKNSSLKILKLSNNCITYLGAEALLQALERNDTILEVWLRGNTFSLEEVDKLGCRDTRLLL

HEK293 [25] = experiment: NOD2 signaling inhibitors in MDP-stimulated cells, cell-based, uHTS, luminescence (AID 2001); assay type: functional; conditions: Homo sapiens
HEK293 [26] = experiment: cells; assay type: functional, cell-based; conditions: Homo sapiens; remark: listed apart in the source
Nonstructural protein 1 = Nonstructural protein 1 (Influenza A virus, UniProt Q194T2); assay type: functional, Influenza A virus (A/California/07/2009(H1N1))
Nonstructural protein 1, sequence (Q194T2 whole entry): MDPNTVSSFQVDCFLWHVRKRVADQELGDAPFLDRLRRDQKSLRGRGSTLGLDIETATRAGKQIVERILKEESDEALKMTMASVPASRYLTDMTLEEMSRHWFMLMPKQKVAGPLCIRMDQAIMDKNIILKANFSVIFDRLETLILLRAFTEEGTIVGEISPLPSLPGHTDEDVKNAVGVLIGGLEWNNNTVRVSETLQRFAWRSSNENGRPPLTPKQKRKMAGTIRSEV

Lysine-specific demethylase 4C, sequence (Q9H3R0 whole entry): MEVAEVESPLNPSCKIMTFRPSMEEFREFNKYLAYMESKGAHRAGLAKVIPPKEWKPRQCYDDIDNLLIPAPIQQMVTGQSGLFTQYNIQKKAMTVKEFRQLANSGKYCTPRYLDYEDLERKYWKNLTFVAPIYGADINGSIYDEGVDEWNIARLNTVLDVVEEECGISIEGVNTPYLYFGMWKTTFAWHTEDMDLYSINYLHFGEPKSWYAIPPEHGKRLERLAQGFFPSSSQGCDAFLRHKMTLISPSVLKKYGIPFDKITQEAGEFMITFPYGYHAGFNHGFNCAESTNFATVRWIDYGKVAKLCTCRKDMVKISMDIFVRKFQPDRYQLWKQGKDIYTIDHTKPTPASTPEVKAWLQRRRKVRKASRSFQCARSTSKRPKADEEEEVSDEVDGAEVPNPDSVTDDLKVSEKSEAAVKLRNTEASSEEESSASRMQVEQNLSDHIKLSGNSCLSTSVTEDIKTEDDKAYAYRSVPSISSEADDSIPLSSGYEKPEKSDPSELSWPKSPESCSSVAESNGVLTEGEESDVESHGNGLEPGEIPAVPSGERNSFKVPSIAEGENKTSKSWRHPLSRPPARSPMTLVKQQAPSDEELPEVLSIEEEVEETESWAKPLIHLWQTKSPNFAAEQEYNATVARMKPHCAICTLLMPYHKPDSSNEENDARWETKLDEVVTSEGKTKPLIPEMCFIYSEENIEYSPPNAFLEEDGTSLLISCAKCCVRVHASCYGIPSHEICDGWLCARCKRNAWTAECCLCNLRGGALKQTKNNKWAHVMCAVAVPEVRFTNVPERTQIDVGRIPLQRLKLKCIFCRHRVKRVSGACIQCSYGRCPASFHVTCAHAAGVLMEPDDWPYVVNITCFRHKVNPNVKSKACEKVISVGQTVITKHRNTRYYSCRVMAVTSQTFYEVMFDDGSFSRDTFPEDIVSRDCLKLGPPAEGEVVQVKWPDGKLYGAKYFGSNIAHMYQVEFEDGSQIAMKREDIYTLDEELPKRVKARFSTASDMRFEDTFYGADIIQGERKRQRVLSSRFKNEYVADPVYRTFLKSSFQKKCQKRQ

SMILES: CCOc1ccc(NC(=O)CSc2nnc(-c3ccccc3)n2N)cc1
- AC50 [1]: 12.1 µM (active)

SMILES: CC(C)(CO)NC(=O)c1ccc2nc(Cc3cccc(Cl)c3)oc2c1
- AC50 (A-375 [2]): > 35 µM (active)
- AC50 (A-375 [3]): > 35 µM (active)

SMILES: CCOC(=O)c1c(C)[nH]c(C(=O)OCC(O)=C(C#N)c2nc3ccccc3[nH]2)c1C
- EC50 [4]: > 92.5 µM (inactive)
- EC50 (Mu-type opioid receptor): > 92.5 µM (inactive)
- EC50 [5]: > 92.5 µM (inactive)

SMILES: O=C(Nc1ccc2nc3n(c(=O)c2c1)CCCC3)c1cc([N+](=O)[O-])ccc1F
- CC50 [6]: 15.1 µM (active)
- AC50 [7]: 11.5 µM (active)
- AC50 (A-375 [2]): > 35 µM (active)
- AC50 (A-375 [3]): > 35 µM (active)
- AC50 [8]: 0.361 µM (active)
- AC50 [9]: 39.2 µM (active)
- AC50 [10]: 21.8 µM (active)

SMILES: CC(C)(C)n1nnnc1C(c1cccnc1)N(Cc1ccccc1)Cc1ccco1 (centres undefined)
- AC50 (HeLa): 75.8 µM (active)
- AC50 (ORF 73): 0.592 µM (active)
- AC50 (Cytochrome P450 2D6): 31.6 µM (inconclusive)
- EC50 (HEK293 [11]): > 59.6 µM (inactive)
- EC50 (HEK293 [12]): > 59.6 µM (inactive)

SMILES: Cc1ccc(-c2nnn3c2nc(Cl)c2ccccc23)cc1
- IC50 (Vero [13]): > 25 µM (active)
- CC50 (Vero [14]): 18.4 µM (active)

SMILES: CCCN(C(=O)Cc1ccc(S(=O)(=O)N2CCOCC2)s1)c1c(N)n(Cc2ccccc2)c(=O)[nH]c1=O
- AC50 [1]: 39.2 µM (active)

SMILES: CC1Cc2cc(S(=O)(=O)N3CCN(c4ccc([N+](=O)[O-])cc4)CC3)ccc2N1C(=O)C1CC1 (centres undefined)
- IC50 (Tumor necrosis factor): 0.236 µM (active)
- IC50 [15]: 0.26 µM (active)
- IC50 (HEK293 [16]): 15.2 µM (active)

SMILES: Cc1cccc(NC(=O)CSCC(=O)Nc2cc(C(F)(F)F)ccc2N2CCOCC2)c1
- EC50 (HEK293 [11]): > 59.6 µM (inactive)
- EC50 (HEK293 [12]): > 59.6 µM (inactive)

SMILES: Cc1cccc(N/N=C(\C(N)=O)C2=NC(C)(C)Cc3ccccc32)c1
- EC50 [17]: 3.43 µM (active)
- EC50 [18]: 13.1 µM (active)
- EC50 [19]: 20.2 µM (active)
- AC50 [20]: 9.41 µM (active)
- IC50 (Vero [13]): > 25 µM (active)
- CC50 (Vero [14]): > 25 µM (active)

SMILES: COc1cc(/C=C2\CCC/C(=C\c3ccc(O)c(OC)c3)C2=O)ccc1O [CYCLOVALONE]
- EC50 (HEK293 [21]): 4.94 µM (active)
- IC50 (HEK293 [22]): 3.6 µM (active)
- IC50 (HEK293 [23]): > 20 µM (inactive)
- EC50 [24]: 9.95 µM (active)
- IC50 (HEK293 [25]): 3.75 µM (active)
- IC50 (HEK293 [26]): > 20 µM (inactive)
- IC50 (Nonstructural protein 1): > 100 µM (active)
